Values of other authors as cited in publication PMC8623851, “The Structural Determinants for α1-Adrenergic/Serotonin Receptors Activity among Phenylpiperazine-Hydantoin Derivatives” (Molecules, 2021).

What was measured:
[1] = molecular target: α1-receptor; parameters: method as in PMID 31383628, PMID 29425815; conditions: previously reported arylpiperazine hydantoin derivatives; cited from earlier work
[2] = molecular target: human 5-HT7b receptor (Homo sapiens, UniProt P34969); parameters: expressed in transfected cells; host or cells: HEK-293; method as in PMID 31383628, PMID 29425815; conditions: previously reported arylpiperazine hydantoin derivatives; read-out: Ki 5-HT7; cited from earlier work
human 5-HT7b receptor, sequence (P34969 1-432): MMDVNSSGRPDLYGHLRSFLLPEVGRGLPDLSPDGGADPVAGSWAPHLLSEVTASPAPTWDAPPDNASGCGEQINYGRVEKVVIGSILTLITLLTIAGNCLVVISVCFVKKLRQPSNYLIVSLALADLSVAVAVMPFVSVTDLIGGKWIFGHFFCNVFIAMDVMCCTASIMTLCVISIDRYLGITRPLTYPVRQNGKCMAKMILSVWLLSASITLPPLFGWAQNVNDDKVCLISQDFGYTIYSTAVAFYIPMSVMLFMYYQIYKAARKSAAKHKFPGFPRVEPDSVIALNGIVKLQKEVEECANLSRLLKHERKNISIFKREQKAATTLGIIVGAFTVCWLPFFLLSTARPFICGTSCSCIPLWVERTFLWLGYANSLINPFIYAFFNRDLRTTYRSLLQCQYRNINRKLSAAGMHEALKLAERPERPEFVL

In the case of `COc1ccc(C2(C)NC(=O)N(CC(O)CN3CCN(c4ccccc4OC)CC3)C2=O)cc1` (centres unmarked) [Compound 3], the Ki [1] is given as 530 nM and the Ki [2] is given as 8 nM.
